Results on two molecules are retold here after article PMC8591608, “DNDI-6148: A Novel Benzoxaborole Preclinical Candidate for the Treatment of Visceral Leishmaniasis” (Journal of Medicinal Chemistry, 2021).

The subject of series [1] is wild-type L. donovani promastigotes. Nature of the series: Drug sensitivity, wild-type L. donovani promastigotes. Format: cell-based. The conditions noted are these: Leishmania donovani. As for the experimental part:
(§1) The clonal L. donovani cell line LdBOB (derived from MHOM/SD/62/1S-CL2D) was grown as promastigotes at 28 °C, as described previously. Bloodstream form T. brucei MiTat 1.2 clone 221a and its derived subline, 2T1, were cultured at 37 °C in the presence of 5% CO2 in HMI9-T medium, as described previously. T. brucei cell lines overexpressing CPSF3 and overexpressing a mutated version of CPSF3 (Asn232His) were generated as part of a previous study and cultured as described.[19]
(§2) Drug sensitivity assays with wild-type and transgenic T. brucei and L. donovani cell lines were carried out as previously described.[31],[32]

The next series deals with L. donovani. The series can be described thus: Intramacrophage L. donovani assay. Type of series: cell-based. The conditions noted are these: Leishmania donovani; Table 2; geometric mean of at least three independent assays. As for the experimental part:
(§3) L. infantum (MHOM/MA/67/ITMAP263) and L. donovani (MHOM/ET/67/L82) were maintained in the golden (Syrian) hamster (Mesocricetus auratus). Ex vivo amastigotes were collected from the spleen of an infected donor hamster using two centrifugation purification steps: 230g for 10 min, keeping the supernatant layer, and 4100g for 30 min, keeping the pellet. The spleen parasite burden was assessed using the Stauber technique.[25] For in vitro assays, the inoculum was prepared in RPMI-1640 medium, supplemented with 200 mM L-glutamine, 16.5 mM NaHCO3, and 5% inactivated fetal calf serum. For the in vivo model, an infection inoculum containing 2 × 10^7 amastigotes/100 μL was prepared in phosphate-buffered saline (PBS).
(§4) The assay was performed in sterile 96-well microtiter plates, each well containing 10 μL of the compound dilution and 190 μL of the PMM/amastigote inoculum (3 × 10^4 cells/4.5 × 10^5 parasites per well). Parasite multiplication was compared to untreated infected controls (100% growth) and uninfected controls (0% growth). After five-day incubation, total parasite burdens were microscopically assessed after staining the cells with a 10% Giemsa solution. The results were expressed as a percentage reduction in parasite burden compared to untreated control wells. EC50 values were determined using an extended dose range (2-fold compound dilutions, 8-point concentration curve). Miltefosine was used as the reference drug.[26] For selected compounds, this assay format was also run using the L. donovani inoculum.

A further series has as its system Trypanosoma brucei. On the set-up: method as in PMID 21738803. The conditions noted are these: in vitro; read-out: EC50 against Trypanosoma brucei; cited from earlier work.
Series [2] concerns L. infantum. Nature of the series: Intramacrophage L. infantum assay. Type of series: cell-based. To be noted: Leishmania infantum; Table 2; geometric mean of at least three independent assays; read-out: intramacrophage L. infantum EC50. As for the experimental part: as §3, §4
A short description of a further series: PMM cytotoxicity assay. Format: cell-based. To be noted: mouse, primary peritoneal mouse macrophages (PMM); for EC50 at 3 days: Table 2, geometric mean of at least three independent assays. As for the experimental part: (§5) Primary peritoneal mouse macrophages (PMM) were collected two days after peritoneal stimulation with a 2% potato starch suspension. MRC5SV2 cells (diploid human embryonic lung fibroblasts) were cultured in minimal essential medium (MEM) containing Earle’s salts, supplemented with L-glutamine, NaHCO3, and 5% inactivated fetal calf serum. All cultures and assays were conducted at 37 °C under an atmosphere of 5% CO2.
(§6) Assays were performed in sterile 96-well microtiter plates, each well containing 10 μL of the compound dilution and 190 μL of MRC5SV2 or PMM inoculum (3 × 10^4 cells/mL). Cell growth was compared to untreated controls (100% growth) and assay-media controls (0% growth). After three-day incubation, cell viability was assessed fluorometrically by adding resazurin (50 μL/well of a stock solution in phosphate buffer (50 μg/mL)), incubating for 4 h and measuring fluorescence (λex 550 nm, λem 590 nm). The results were expressed as a percentage reduction in cell growth compared to untreated control wells. […] Tamoxifen was included as the reference drug.

In series [3] the test system is CPSF3 (Asn219His)-overexpressing L. donovani promastigotes. Nature of the series: Drug sensitivity, CPSF3 (Asn219His)-overexpressing L. donovani promastigotes. Type of series: cell-based. To be noted: for EC50: Leishmania donovani. As for the experimental part: as §1
(§7) L. donovaniCPSF3 gene (LdBPK_343210.1) was custom synthesized by GeneArt and ligated into the pIR1SAT vector via BglII restriction sites. Using the Q5 mutagenesis kit (NEB) and the pIR1SAT-LdCPSF3^WT construct as a template, mutations encoding A655C and Asn219His change to CPSF3^WT were introduced. Mutations were introduced using the specific primers 5′-GAGTACACGGCATCCGC-3′ and 5′-[…]-3′ and as per manufacturers’ instructions. Wild-type and mutated pIR1SAT constructs were digested with SwaI and transfected into L. donovani promastigotes, as previously described. Resistant clones were selected with nourseothricin (100 μg/mL), and two clones per transfection were selected for further study.
as §2

For series [4], the system named is CPSF3-overexpressing L. donovani promastigotes. The series can be described thus: Drug sensitivity, CPSF3-overexpressing L. donovani promastigotes. Format: cell-based. The conditions noted are these: Leishmania donovani. On the procedure: as §1, §7, §2
The next series in a line: MRC5 cytotoxicity assay. Format: cell-based. The conditions noted are these: human, MRC5SV2 cells (human embryonic lung fibroblasts); Table 4; geometric mean of at least two independent tests. On the procedure: as §5, §6
Series [5] has as its system L. infantum. The series can be described thus: L. infantum hamster model of VL. Format: in vivo. On the procedure:
as §3
Female golden hamsters for the in vivo model of visceral leishmaniasis were purchased from Janvier, France (body weight 80–100 g). This study using laboratory rodents was carried out in strict accordance with all mandatory guidelines (EU directives, including the Revised Directive 2010/63/EU on the protection of Animals used for Scientific Purposes that came into force on 01/01/2013, and the declaration of Helsinki in its latest version) and was approved by the ethical committee of the University of Antwerp, Belgium (UA-ECD 2011-74). Female golden hamsters for the pharmacokinetic study were purchased from Vital River, Beijing, China. This study was conducted following institutional review and in accordance with institutional and national guidelines at WuXi AppTec (the Institutional Animal Care and Use Committee (IACUC)). Balb/c mice for the in vivo model of visceral leishmaniasis (LSHTM) were purchased from Charles River, U.K., and related studies were conducted under license PPL 70/8427 from the U.K. Home Office.
Female golden hamsters were randomly allocated to experimental groups of six animals each, based on body weight. At the start of the experiment (Day 0), each animal was infected with L. infantum or L. donovani inoculum, delivered by intracardial injection. Six hamsters were assigned to the vehicle-treated, infected control group. Six hamsters were assigned per group (1 group/compound) for the evaluation of compound and miltefosine. […] At Day 35 (10 days after the final oral dose), all animals were euthanized and autopsies were conducted. The study evaluated the following parameters. • 1. Adverse effects: all animals were observed daily for the occurrence/presence of adverse effects. • 2. Body weight: all animals were weighed twice per week to monitor general health. • 3. Parasite burden: amastigote burdens in each target organ (liver, spleen, and bone marrow) were determined at Day 35. The organs of individual animals were weighed (except for bone marrow). Impression smears were stained with Giemsa for microscopic examination of the total amastigote burden, defined as the mean number of amastigotes per cell multiplied by the number of cells counted (minimum 500 nuclei); the results were expressed as a percentage reduction in amastigote burden compared to vehicle-treated, infected control animals.

Series [6] can be described thus: Liver microsome stability, human. Format: in vitro ADME. The conditions noted are these: human liver microsomes, pH 7.4, Table 4, read-out: HLM Clint. As for the experimental part:
Tests were performed by WuXi AppTec, China. Test compounds (at 1 μM) or positive controls (testosterone, propafenone, and diclofenac) were incubated at 37 °C with liver microsomes from Balb/c mouse, golden (Syrian) hamster, Sprague-Dawley rat, Beagle dog, or human in the presence of a NADPH regenerating system and phosphate buffer (100 mM, pH 7.4) at 0.4 or 0.8 mg/mL microsomal protein. The samples were removed at time intervals from 0 to 60, 90, or 120 min and immediately mixed with cold methanol supplemented or not with acid (3% formic acid) and centrifuged prior to analysis by LC-MS/MS using tolbutamide or propranolol as internal standards.

Bounds are passed on as bounds.

With `CC1(C)OB(O)c2cc(NC(=O)c3ccc(F)cc3C(F)(F)F)ccc21` [Compound 1, acoziborole, reference compound], the EC50 in [1] was 2500 ± 100 nM; with L. donovani, 59000 nM; in the series with Trypanosoma brucei, 795 nM; in the series with L. infantum [2] it was above 64000 nM; in [3] it was 11700 ± 400 nM; in series [4], 2800 ± 100 nM. Besides, the EC50 at 3 days in the series “PMM cytotoxicity assay” was above 64000 nM. The half-maximal cytotoxic concentration (CC50) at 3 days in the series “PMM cytotoxicity assay” (supplement csv) is above 64000 nM. For the same molecule, in series [3] (promastigotes overexpressing mutated CPSF3), the “fold reduction in susceptibility” value came to 5 fold.
On to `O=C(Nc1ccc2c(c1)B(O)OC2)c1ccc(F)cc1C(F)(F)F` [Compound 3], for which the EC50 came to 1200 ± 20 nM in series [1]; 1200 nM in the series on L. donovani; 2700 nM in the series on L. infantum [2]; 4400 ± 200 nM in series [3]; 1400 ± 30 nM in series [4]. For the same molecule, the cytotoxic concentration (CC50) at 3 days in “MRC5 cytotoxicity assay” was above 64000 nM; in the series “PMM cytotoxicity assay” (Table 4, geometric mean of at least two independent tests) it was above 64000 nM. For the same molecule, the “reduction in parasite burden, bone marrow” value with L. infantum [5] (25 mg/kg QD for 5 days) was determined as 81.6%; in the series on L. infantum [5] (50 mg/kg QD for 5 days), 91.2%; in the series with L. infantum [5] (100 mg/kg QD for 5 days) it was 88.3%. Also, the “reduction in parasite burden, spleen” value is recorded as 81.8% in the series with L. infantum [5] (25 mg/kg QD for 5 days), 95.0% in the series on L. infantum [5] (50 mg/kg QD for 5 days) and 96.0% with L. infantum [5] (100 mg/kg QD for 5 days). Also, the “reduction in parasite burden, liver” value worked out at 87.8% in the series with L. infantum [5] (25 mg/kg QD for 5 days, vs vehicle-treated infected controls); 97.4% with L. infantum [5] (50 mg/kg QD for 5 days); 98.6% with L. infantum [5] (100 mg/kg QD for 5 days). The EC50 at 3 days in the series “PMM cytotoxicity assay” is above 64000 nM. In series [6], the microsomal CLint at 2 h, 1 µM was 0.8 µL/min/mg.
